Molecular target in the first assay: not listed separately
In words: Binding affinity to alpha-2delta calcium channel.
As usually defined, the Ki is a dissociation constant, usually derived from enzyme kinetics or from competition with a known ligand. Consider `CCCC(CCC)CC(CN)c1nnn[nH]1` (stereo not given), for which the inhibition constant Ki turned out to be 280 nM. As to `NCCc1nnn[nH]1`, the Ki is over 10000 nM. Consider `NCC(c1ccccc1)c1nnn[nH]1` (stereo not given), for which the Ki was over 10000 nM. Same read-out and setting: then `CC(C)C(CN)c1nnn[nH]1` (stereo not given), with 130 nM. `CC(C)CCC(CN)c1nnn[nH]1` (stereo not given): the Ki came out at 210 nM. The same measure, in the same setting: then `NCC(CCCCc1ccccc1)c1nnn[nH]1` (stereo not given), with 130 nM.

Turning to `CC(C)(CN)c1nnn[nH]1`, the inhibition constant (Ki) is over 10000 nM. `NCC(Cc1ccccc1)(Cc1ccccc1)c1nnn[nH]1`: the Ki is over 10000 nM. On the same count and under the same terms, the same measure for `CC(CN)(Cc1ccccc1)c1nnn[nH]1` (stereo not given): 900 nM. In the case of `NCC(CCCCCc1ccccc1)c1nnn[nH]1` (stereo not given), the Ki is 500 nM. The same measure, in the same setting: the same measure for `CC(CN)(Cc1cccc(C(F)(F)F)c1)c1nnn[nH]1` (stereo not given): 160 nM; for `NCC(CCc1ccccc1)c1nnn[nH]1` (stereo not given): 3100 nM; for `NCC(CC1CCCCC1)c1nnn[nH]1` (stereo not given): 570 nM.

As to `CC(C)C1CC1(CN)c1nnn[nH]1` (stereo not given), the Ki turned out to be 190 nM. The same measure, in the same setting: then `CCCCCCC(CN)c1nnn[nH]1` (stereo not given), with 330 nM; and `CCC(CC)C1CC1(CN)c1nnn[nH]1` (stereo not given), with 4000 nM; and `NCC1(c2nnn[nH]2)CC12CCCCC2` (stereo not given), with 33 nM.

Turning to `NCC(c1nnn[nH]1)C1CCCCC1` (stereo not given), the Ki came out at 150 nM.

`NCC(Cc1ccccc1)c1nnn[nH]1` (stereo not given): the Ki came to 7600 nM.

In the case of `NCC(CCCc1ccccc1)c1nnn[nH]1` (stereo not given), the Ki came to 2100 nM. Still for that read-out and setting: the same measure for `CC(CN)(Cc1ccc(F)c(F)c1)c1nnn[nH]1` (stereo not given): 520 nM; for `CCC(CC)CC(CN)c1nnn[nH]1` (stereo not given): 11 nM. The same measure, in the same setting: the same measure for `NCC(c1nnn[nH]1)C1CCCC1` (stereo not given): 18 nM; for `CC(C)CC(CN)c1nnn[nH]1` (stereo not given): 17 nM.

The next assay relates to Mus musculus. In words: Protection of DBA/2 mouse against audiogenic-induced tonic seizure at 30 mg/kg, po after 1 hr. Type of assay: functional.
For the molecule `CCC(CC)CC(CN)c1nnn[nH]1` (stereo not given), the Activity is 60%. Still for that read-out and setting: the same measure for `CC(C)CC(CN)c1nnn[nH]1` (stereo not given): 40%. Consider `CC(C)C[C@H](CN)CC(=O)O` [PREGABALIN], for which the Activity was 100%.

In a further assay the test system is Mus musculus. In words: Protection of DBA/2 mouse against audiogenic-induced tonic seizure at 30 mg/kg, po after 2 hrs. It is filed as functional.
Consider `CCC(CC)CC(CN)c1nnn[nH]1` (stereo not given), for which the Activity is listed as 100%. The same measure, in the same setting: then `CC(C)CC(CN)c1nnn[nH]1` (stereo not given), with 80%; and `CC(C)C[C@H](CN)CC(=O)O` [PREGABALIN], with 100%.
